As usually defined, the IC50 is the midpoint of a concentration-inhibition curve.

Assay [1] concerns the target T1, CDK4 (Homo sapiens, UniProt P11802).
T1 construct: purchased Proqinase 0142-0373-1
Description: CDK4 Inhibition Assay. Format: biochemical. Conditions: CDK4 kinase, 33P-ATP, CTRF substrate. The method, then:
All ligands, radiolabels, solvents, and reagents employed in the following assays are readily available from commercial sources, or can be readily synthesized by one skilled in the art.
10 μL of test compound in 20% DMSO, 20 μL of adenosine 5′-triphosphate (ATP) and C-Terminal Retinoblastoma Fragment (CTRF) (Upstate cat # 12-439) solution, and 10 μL of enzyme solution are mixed in a 96 well plate. The ATP and CRTF solution is prepared from a mixture of 40 μM ATP, 0.16 μCi [^33P] ATP and 1 μM CTRF diluted in kinase buffer of 68 mM 4-(2-hydroxyethyl)-1-piperazineethanesulfonic acid (HEPES) pH 7.4, 6.72 mM MgCl2, 6.72 mM dithiothreitol (DTT), and 0.013% TRITON™ X-100. The enzyme solution is prepared from 8 ng CDK4 enzyme (Proqinase cat # 0142-0373-1) diluted in the kinase buffer described above. Test compounds are serially diluted 1:3 in 20% DMSO to create a 10 point curve at a starting concentration of 20 μM. 20% DMSO buffer alone without added test compound is employed as a control, 500 mM ethylene diamine tetraacetic acid (EDTA) is used to determine the level of background ^33P in the absence of enzyme activity. Reagents are mixed and incubated for 90 min at 20° C. […] The wells are washed four times with 0.5% H3PO4 and the radioactivity incorporated is determined with a microplate scintillation counter (Microbeta Trilux, Wallac). […]

The target of assay [2] is Pim-1 (Homo sapiens, UniProt P11309). Description: Assay for Inhibition of PIM1 Kinase. Format: biochemical. The method, then: Pim-1 (human, 0.46 nM final concentration) is incubated with 8 mM MOPS pH 7.0, 0.2 mM EDTA, 100 μM of an appropriate substrate peptide (see Pim-1 kinase inhibition assay protocol as described in Chen, L. S. et al. (2009) Blood, DOI: 10.1182/blood-2009-03-212852), 10 mM MgAcetate and [γ-^33P-ATP] (specific activity approx. 500 cpm/pmol, concentration as required). The reaction is initiated by the addition of the MgATP mix and then incubated for 40 minutes at room temperature. The reaction is stopped by the addition of 3% phosphoric acid solution. 10 μL of the reaction is then spotted onto a P30 filtermat and washed three times for 5 minutes in 75 mM phosphoric acid and once in methanol prior to drying and scintillation counting. For compound inhibition testing, compounds provided as 10 mM stocks in 100% DMSO are diluted 1:10 in 100% DMSO to give a 50× stock of the top concentration of the curve. The 50× stock is then serially diluted 1:3 in 100% DMSO to create a 10 point concentration-response curve and diluted 1:50 (20 μM to 0.001 μM final in 2% final DMSO concentration) in the reaction mixture to determine compound activity. […] The percent inhibition determined from the controls on each plate and ten-point compound concentration data were then fit to a four-parameter logistic equation using ACTIVITYBASE 4.0. […]

In assay [3] the test system is phosphorylation of Retinoblastoma Protein (pRb). Put plainly: Inhibition of Phosphorylation of Retinoblastoma Protein (pRb) in COLO 205 cells. Format: cell-based. As to conditions: Homo sapiens, 24 h exposure, read-out: IC50 (% phosphoRB positive). The method, then: COLO 205 Cells from the American Type Culture Collection (ATCC) are plated at 2000 cells/well in 96 well […] BIOCOAT™ plates, and are incubated in RPMI 1640 medium (e.g., GIBCO, catalog #52400-025) with 10% Fetal Bovine Serum (FBS e.g. Gibco cat #11000-144) and 1% sodium pyruvate (Gibco catalog #11360-070) in 37° C., 5% CO2 for 24 h. Cells are treated by adding test compound to the medium, dosing at 10 points of 1:3 dilutions across the range of 20 μM to 0.001 μM, and with final DMSO concentration at 0.25%. After 24 h exposure to the compounds, cells are fixed with the PREFER™ fixative [Anatech LTD., Cat # 414] for 30 min at RT, then are permeabilized with 0.1% TRITON® X100 in phosphate buffered saline (PBS) solution for 15 min at RT. […] Fluorescence plates are scanned with ACUMEN EXPLORER™ [Laser-scanning fluorescence microplate cytometer (comprising of 488 nm argon ion laser excitation and multiple photomultiplier tube detection), manufactured by TTP LABTECH LTD] to measure phosphorylation of Rb protein and DNA content. […] Assay outputs are percentage of each identified subpopulations, % phosphoRB positive, % 2 N and % 4 N. The IC50 and EC50 values are determined by curve fitting to a four parameter logistic for each output using ACTIVITY BASE™. […]

T1 sequence (P11802 whole entry): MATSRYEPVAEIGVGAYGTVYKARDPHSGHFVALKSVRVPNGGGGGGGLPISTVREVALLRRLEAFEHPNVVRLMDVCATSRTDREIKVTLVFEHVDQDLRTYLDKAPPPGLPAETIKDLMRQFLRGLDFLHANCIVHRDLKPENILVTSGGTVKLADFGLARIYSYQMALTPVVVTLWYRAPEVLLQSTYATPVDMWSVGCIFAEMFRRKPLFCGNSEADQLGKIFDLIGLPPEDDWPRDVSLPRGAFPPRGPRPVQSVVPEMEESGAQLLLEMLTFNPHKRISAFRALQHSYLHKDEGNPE
T1 sequence (P30281 whole entry partner): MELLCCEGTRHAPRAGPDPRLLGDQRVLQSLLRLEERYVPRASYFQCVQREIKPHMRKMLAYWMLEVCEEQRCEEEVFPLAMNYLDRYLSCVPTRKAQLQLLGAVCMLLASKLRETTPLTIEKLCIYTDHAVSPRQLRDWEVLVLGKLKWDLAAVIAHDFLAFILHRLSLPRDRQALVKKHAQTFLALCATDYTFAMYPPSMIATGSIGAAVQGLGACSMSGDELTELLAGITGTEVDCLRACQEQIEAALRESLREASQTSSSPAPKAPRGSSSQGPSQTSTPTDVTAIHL
Sequence of Pim-1 (P11309 whole entry): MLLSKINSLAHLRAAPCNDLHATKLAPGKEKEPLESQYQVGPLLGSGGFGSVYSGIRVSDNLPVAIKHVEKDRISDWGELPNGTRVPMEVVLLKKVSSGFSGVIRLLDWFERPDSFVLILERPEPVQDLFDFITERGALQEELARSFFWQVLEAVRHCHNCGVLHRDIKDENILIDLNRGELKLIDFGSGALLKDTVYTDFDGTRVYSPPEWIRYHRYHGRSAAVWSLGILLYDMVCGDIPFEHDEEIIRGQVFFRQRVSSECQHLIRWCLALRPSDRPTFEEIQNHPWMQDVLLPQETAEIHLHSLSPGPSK

On to `CCN1CCC(Cc2ccc(Nc3ncc(F)c(-c4cc(F)c5nc(C)n(C(C)C)c5c4)n3)nc2C)CC1` [Example 25, [5-(1-Ethyl-piperidin-4-ylmethyl)-6-methyl-pyridin-2-yl]-[5-fluoro-4-(7-fluoro-3-isopropyl-2-methyl-3H-benzoimidazol-5-yl)-pyrimidin-2-yl]-amine methanesulfonate], for which the IC50 in assay [1] was 3 nM; in assay [2] it was 3 nM; in assay [3], about 100 nM.

The values above are taken from US7855211B2, “Protein kinase inhibitors” (Eli Lilly and Company, priority 2008, dated 2010).
